We go through three substances from US6969590B2, “Use of a polypeptide for treatment of pruritus in animals” (Zengen, Inc., priority 2001, dated 2005).

“Also recorded” adds a separate entry of the source.

The conditions of assay [1]: kind of activity not given; cited from earlier work.
Assay [2] deals with inflammation induced in the ear by picryl chloride. Description: Picryl chloride-induced ear swelling. The format is in vivo, BALB/C mice. Here is the method: Female BALB/C mice (Simmons Laboratories), 7 weeks old, were housed at 23-25° C. in groups of no more than 5 per cage [28 cm (L)×18 cm (W)×13 cm (H)]. They were allowed to acclimatize to standard lighting and temperature conditions for at least 1 week, with food and water available ad lib, before the experiment began. Five to ten animals were randomly assigned to each treatment group each test day, and all experiments were repeated at least twice to confirm reproducibility. To reduce error due to slight differences in responses to the irritant of animals from different shipments, tests of each agent were performed as separate experiments in which experimental and control animals were drawn from the same shipment.
In the experiments each animal was anesthetized with 1 mg of pentobarbital sodium solution (50 mg/kg, Nembutal, Abbott Laboratories, Abbott park, Ill.). Baseline ear thickness was measured for both ears with a spring-loaded micrometer (Swiss Precision Instruments, Los Angeles, Calif.). Ear thickness was expressed in units of 10^−3 cm; the average thickness of unstimulated ears was approximately 25-30×10^−3 cm. After baseline measurements were taken, one of six solutions was injected IP. Control animals received 0.2 ml of sterile saline, and experimental animals received Ac-α-MSH (11-13)-NH2, i.e., Ac-Lys-Pro-Val-NH2), Ac[D-Lys^11] α-MSH (11-13)-NH2, Ac[D-Pro^12] α-MSH (11-13)-NH2, Ac[D-Val^13] α-MSH (11-13)-NH2 or Ac-[D-Lys^11, D-Val^13] α-MSH (11-13)-NH2 in the same volume of saline. […] The doses of the tripeptides were 10 μg ([…]), 20 μg ([…]), 40 μg (1.04×10^−7 M), and 80 μg (2.08×10^−7 M). Immediately after saline or α-MSH injection, a micropipette was used to coat both sides of each ear with 10 μl (40 μl per mouse) of a 0.5% picryl chloride (Polysciences, Warrington, Pa.) solution in acetone.
Ear thickness was remeasured 3 and 6 h after picryl chloride application. Swelling was determined by subtracting baseline thickness from the measurements for each ear at 3 and 6 h. The differences for both ears were then averaged for the final analysis.
Repeated-measure ANOVA techniques were used to determine if there was an overall difference among group data for each peptide tested in separate experiments. In those cases in which the ANOVA yielded significant results, Dunnett's test was then used to compare the effects of peptide doses with control (saline) data for each of the two time periods, 3 and 6 h.

In the next assay the test system is human neutrophils. Description: C. albicans killing by human neutrophils. The assay is classed as cell-based. To be noted: 2 hours at 37° C., vs. medium. The protocol: Venous blood (20 ml) from healthy volunteers was anticoagulated with heparin. Neutrophils were isolated using dextran sedimentation and Ficoll-Hypaque (Sigma Chemical Co., St. Louis, Mi., USA) centrifugation. Erythrocytes were lysed via hypotonic shock. Neutrophils represented at least 97% of the cell suspension. Cell viability, estimated by trypan blue exclusion, was >98%. Neutrophils were suspended to a final concentration in HBSS. C. albicans (1×10^6) were opsonized with human AB serum in a shaking water bath for 30 minutes at 37° C. Organisms were then incubated with neutrophils in medium or in medium with α-MSH (1-13) or α-MSH (11-13) in concentrations of 10^−15 M to 10^−4 M in a shaking water bath for 2 hours at 37° C. After incubation, the culture tubes were placed on ice to stop growth and extracellular organisms were washed twice with centrifugation at 1000×g at 4° C. A 2.5% sodium desoxycholoate solution was added to obtain a suspension of 10^6 cells/ml. Two 1/100 serial dilutions in HBSS were made to obtain a final suspension of 100 cells/ml. Aliquots of 1 ml were dispensed on blood agar plates and incubated for 48 hours at 37° C. Colony forming units (CFUs) were counted at the end of the incubation period. Experiments were run in triplicate and repeated using blood from 5 different donors.

In a further assay the test system is cAMP. The assay can be described thus: cAMP accumulation in N9 cells. The format is cell-based, murine. The conditions noted are these: resting cells and cells incubated with LPS+IFN-γ. Here is the method:
cAMP accumulation in N9 cells was measured as previously described. Briefly, cells in six-well plates were co-incubated at 37° C. with (1) medium; (2) forskolin (100 μM); (3) LPS (10 ng/mL)+IFN-γ (1 U/mL); (4) α-MSH (1-13) or α-MSH (11-13) (1, 10, 50 μM); (5) LPS+IFN-γ and either α-MSN (1-13) or α-MSH (11-13) (10 μM). Reactions were stopped after 3 min by aspirating supernatants, immediately adding 1 mL ethanol at −20° C. and freezing. cAMP content in the ethanol-soluble fraction was measured using an enzyme immunoassay kit (Amersham).
On the technique in general: Changes in cAMP serve as a functional read-out for many G protein-coupled receptors.

The test system of another assay is NO2^−. Description: Nitrite (NO) production by activated N9 microglia. To be noted: microglia stimulated with LPS+IFN-γ for 24 hr, micromolar concentrations. The assay is classed as cell-based, murine. The protocol:
(§1) The N9 clone of murine microglial cells was obtained by immortalization of embryonic brain cultures with the 3RV retrovirus carrying an activated v-myconcogene. N9 cells were cultured in T-75-cm^2 culture flasks (Corning, Cambridge, Mass.) and maintained at 37° C. in a humidified incubator under 5% CO2 atmosphere in RPMI 1640 supplemented with 2 mM L-glutamine, 50 U/mL penicillin G, 50 μg/mL streptomycin sulfate (GIBCO-BBL, Paisley, UK), and 10% heat-inactivated fetal bovine serum (FBS, Hyclone Lab, Inc., Logan, Utah) until experiments were performed. Cells were used between the first and the tenth passage.
(§2) Sub-confluent microglial cells were washed twice with phosphate-buffered saline (PBS) and incubated with trypsin 0.025% and ethylenediaminetetraacetate (EDTA) 0.02% without calcium and magnesium for 3 min. at 37° C. to detach the cells from the culture flask. Cells were then resuspended in medium and incubated in 24-well tissue-culture plates at a concentration of 2×10^5 cells/mL for 16 h in a humidified incubator (37° C., 5% CO2). Growth medium was removed and cell monolayers were stimulated with 10 ng/mL lipopolysaccharide (LPS, from Escherichia coli 055:B5, Sigma Chemical Co., St. Louis, Mo.) plus 1 U/ml, murine IFN-γ (Sigma). To test effects of melanocortin peptides, concentrations (1, 10, 25, 50 and 100 μM) of α-MSH (1-13), α-MSH (11-13), and ACTH (1-24) (Sigma) were dissolved in medium and added to wells 10 min before treatment with LPS+IFN-γ. […] Viability of cells was assessed by trypan blue exclusion for each experimental condition; it was consistently >98%. […]
NO is rapidly oxidized to nitrite (NO2) in culture medium, and nitrite concentration is an indicator of NO production. […] Samples were incubated at room temperature for 10 min and absorbency was measured at 540 nm with the use of a microplate reader. Nitrite concentrations were calculated using a sodium nitrite standard curve.
(§3) Effects of melanocortin peptides on cytokine and NO production were evaluated by repeated measures analysis of variance followed by Dunnet's test for specific comparisons. […]

Another assay relates to IL-6. The assay can be described thus: IL-6 production by activated N9 microglia. The format is cell-based, murine. To be noted: microglia stimulated with LPS+IFN-γ for 24 hr, micromolar concentrations. Here is the method: as §1, §2
(§4) TNF-α bioactivity was measured in supernatants of cell cultures by standard cytotoxicity assay using L929 cells and recombinant human TNF-α (Sigma) as standard. […] IL-6 was measured using a commercial murine enzyme-linked immunosorbent assay (ELISA: RPN 2714, Amersham, Little Chalfont, UK).
as §3

The test system of assay [3] is C. albicans. Description: Horse serum-induced germ tube formation of C. albicans. The format is cell-based. The conditions noted are these: 10^−6M, 60 minutes at 37° C. The protocol: C. albicans from stationary phase cultures were washed twice with distilled water and suspended in HBSS to a final concentration of 2×10^6/ml. Hyphal growth was induced by addition of 10% inactivated horse serum (GIBCO/BRL, Great Britain) to yeast incubated for 45 minutes at 37° C. with continuous shaking. Horse serum was removed by washing cells twice with HBSS and incubation was continued for 60 minutes at 37° C. in the presence of α-MSH (1-13), α-MSH (6-13) or α-MSH (11-13) at a concentration of 10^−6M with continuous shaking. The percentage of filamentous cells was evaluated under a light microscope with the aid of hemocytometer. Experiments were run in triplicate and at least 200 cells were scored. Photomicrographs were taken with an MC100 camera attached to an Axioskop Zeiss microscope.

The next assay concerns TNF-α and iNOS mRNA. The assay can be described thus: Northern blot of TNF-α and iNOS mRNA in activated microglia. The assay is classed as cell-based, murine. The protocol:
Total cellular RNA was extracted from 10^6 adherent microglial cells plated in six-well tissue culture plates (Corning). Electrophoresis of RNA samples (10 μg/lane) was performed in 1% agarose/2.2 M formaldehyde gels and the gels subsequently blotted onto nylon filters by capillary action and baked for 2 h before prehybridization. The cDNA fragments encoding murine TNF-α and mouse macrophage iNOS were ^32P-labeled using the Ready-To-Go DNA Labeling Kit (Pharmacia, Uppsala, Sweden) before hybridization of nylon filters and autoradiography. Blots were subsequently rehybridized with human glyceraldehyde-3-phosphate dehydrogenase (G-3-PDH) cDNA probe as an internal control (Clontech Laboratories, Inc., Palo Alto, Calif.).

Assay [4] has as its system C. albicans. Description: C. albicans colony forming units (candidacidal activity). The assay is classed as cell-based. Here is the method:
C. albicans (1×10^6/ml in HBSS) was incubated in the presence or absence or α-MSH (1-13) or α-MSH (11-13) at concentrations in the range of 10^−15 M to 10^−6 M for 2 hours at 37° C. Cells were then washed in cold distilled water and diluted with HBSS to a concentration of 100 organisms/ml. One-ml aliquots were dispensed on blood agar plates and incubated for 48 hours at 37° C. Organism viability was estimated from the number of colonies formed. In subsequent experiments using familiar procedures we compared activity of α-MSH (4-10), α-MSH (6-13), α-MSH (11-13), ACTH (1-39), (18-39) and fluconazole, the latter an established antifungal agent. Melanocortin peptides and fluconazole were tested in concentrations of 10^−6 M to 10^−4 M. There were at least six replicates for each concentration of peptide.

In a further assay the test system is TNF-α. Description: TNF-α production by activated N9 microglia. The format is cell-based, murine. To be noted: microglia stimulated with LPS+IFN-γ for 24 hr, micromolar concentrations. The protocol: as §1, §2, §4, §3
The test system of the next assay is fever. To be noted: relative to parent peptide or to the 11-13 sequence; cited from earlier work.

Regarding Ac-[D-Lys^11]α-MSH (11-13)-NH2, the “general potency relative to L-form tripeptide” value in assay [1] is given as “same general potency as the L-form of the tripeptide α-MSH (11-13)”. The “% Inhibition of swelling” value in assay [2] (10 μg IP, 3 h) was 23%; in assay [2] (10 μg IP, 6 h), 17%; in assay [2] (20 μg IP, 3 h), 25%; in assay [2] (20 μg IP, 6 h), 16%; in assay [2] (40 μg IP, 3 h) it was 35%; in assay [2] (40 μg IP, 6 h), 37%. In addition, the “% Inhibition of swelling” value in assay [2] (80 μg IP, 3 h) stood at 34%; in assay [2] (80 μg IP, 6 h), 29%. Further, in assay [2] (10-80 μg IP, 3 and 6 h), the “overall effect on ear inflammation (ANOVA)” value is reported as “significantly reduced inflammation”.
As for “Lys-Pro-Val (KPV; Designed polypeptide with anti-inflammatory, anti-bacterial, anti-fungal and antipyretic properties.) [α-MSH (11-13), C-terminal tripeptide KPV of α-MSH]”, the “killing of C. albicans by human neutrophils” value in the assay with human neutrophils is reported as “enhanced the killing”. In addition, the cAMP accumulation result in the assay with cAMP is given as “increased cAMP accumlation”. Besides, in the assay on NO2^−, the “reduction of production of NO2^−” value was 40%. For the same substance, in the assay with IL-6, the “reduction of production of IL-6” value stood at 50%. Further, the “reduction in the number of filamentous cells (inhibition of germination)” value in the assay on C. albicans [3] was 54-58%. Besides, the “mRNA for TNF-α and iNOS (Northern blot)” value with TNF-α and iNOS mRNA is “inhibition of mRNA transaction for TNF-α and iNOS”. For the same substance, the “relative potency in reducing C. albicans viability” value in the assay with C. albicans [4] (10^−4M melanocortin peptides) was “the most effective”. Further, in the assay with C. albicans [4] (2 hours at 37° C., vs. control), the “effect on C. albicans colony forming units (CFU)” value was “greatly reduced; also recorded: significantly decreased C. albicans colony forming units; also recorded: inhibitory effect”. The “reduction of production of TNF-α” value in the assay on TNF-α was 45%.
In the case of [Nle^4, D-Phe^7]-α-MSH, the antipyretic potency result in the assay on fever is recorded as “approximately ten times more potent than the parent peptide in reducing fever”.
